Consider 21 substances from US11214803B2, “Modulators of YAP1 expression” (Ionis Pharmaceuticals, Inc., priority 2019, dated 2022).

Strand notation (5' to 3'): a small letter for the sugar, then the base; units joined by * are phosphorothioate-linked, units joined directly phosphodiester-linked; [ ] holds rarer units or linkages, { } end groups; capitals alone tell only the bases. e = 2'-O-(2-methoxyethyl) (MOE); k = constrained ethyl (cEt); [5mC] = 5-methylcytosine; d = 2'-deoxy (DNA)

The test system of one data set is Yap1 mRNA. The experiment in a line: Antisense inhibition of human Yap1 in SNU-449 cells by modified oligonucleotides, single dose (Example 5, RTS36584). The class given is cell-based. Particulars: Table 48; Yap1 mRNA level relative to untreated control; modified oligonucleotides targeting SEQ ID NO.: 1 and 2. The procedure, abridged:
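Free uptake, 2,000 nM, ~48 h, SNU-449 at 10,000 cells/well. Read-out: qRT-PCR (RTS36584), RIBOGREEN-normalised, expressed as % UTC. Asterisk = oligo hits amplicon region.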
In the case of “1198296 (kT*kT*kA*dG*dA*dG*dT*dA*dT*dG*dT*dG*kG*e[5mC]*kA*eA; antisense) [Compound 1198296]”, the “YAP1 (% UT)” value is on record as 29 % UT.
In the case of “1198297 (kA*kT*kT*dA*dG*dA*dG*dT*dA*dT*dG*dT*kG*eG*k[5mC]*eA; antisense) [Compound 1198297]”, the “YAP1 (% UT)” value was determined as 8 % UT.
The same measure, in the same setting: to “1198298 (kT*kA*kT*dT*dA*dG*dA*dG*dT*dA*dT*dG*kT*eG*kG*e[5mC]; antisense) [Compound 1198298]” belongs 23 % UT; to “1198299 (ATATTAGAGTATGTGG; chemistry not fully specified) [Compound 1198299]”, 27 % UT.
Take “1198300 (kT*kA*kT*dA*dT*dT*dA*dG*dA*dG*dT*dA*kT*eG*kT*eG; antisense) [Compound 1198300]”: the “YAP1 (% UT)” value turned out to be 60 % UT.
Regarding “1198301 (kT*k[5mC]*kT*dA*dT*dA*dT*dT*dA*dG*dA*dG*kT*eA*kT*eG; antisense) [Compound 1198301]”, the “YAP1 (% UT)” value came to 43 % UT.
For “1198307 (kT*kT*kA*d[5mC]*dA*dT*dT*dA*dG*dG*dA*dA*k[5mC]*eA*kA*eG; antisense) [Compound 1198307]”, the “YAP1 (% UT)” value was determined as 49 % UT.
Same read-out and setting: to “1198308 (kT*kT*kT*dT*dA*d[5mC]*dA*dT*dT*dA*dG*dG*kA*eA*k[5mC]*eA; antisense) [Compound 1198308]” belongs 68 % UT; to “1198309 (k[5mC]*kT*kT*dT*dT*dA*d[5mC]*dA*dT*dT*dA*dG*kG*eA*kA*e[5mC]; antisense) [Compound 1198309]”, 85 % UT; to “1198310 (kA*k[5mC]*kT*dT*dT*dT*dA*d[5mC]*dA*dT*dT*dA*kG*eG*kA*eA; antisense) [Compound 1198310]”, 28 % UT.
The same measure, in the same setting: to “1198311 (k[5mC]*kA*k[5mC]*dT*dT*dT*dT*dA*d[5mC]*dA*dT*dT*kA*eG*kG*eA; antisense) [Compound 1198311]” belongs 39 % UT; to “1198312 (kG*k[5mC]*kA*d[5mC]*dT*dT*dT*dT*dA*d[5mC]*dA*dT*kT*eA*kG*eG; antisense) [Compound 1198312]”, 7 % UT; to “1198313 (kA*kG*k[5mC]*dA*d[5mC]*dT*dT*dT*dT*dA*d[5mC]*dA*kT*eT*kA*eG; antisense) [Compound 1198313]”, 31 % UT.
For “1198314 (kA*kA*kG*d[5mC]*dA*d[5mC]*dT*dT*dT*dT*dA*d[5mC]*kA*eT*kT*eA; antisense) [Compound 1198314]”, the “YAP1 (% UT)” value was determined as 82 % UT.
Take “1198315 (kT*kT*kA*dA*dG*d[5mC]*dA*d[5mC]*dT*dT*dT*dT*kA*e[5mC]*kA*eT; antisense) [Compound 1198315]”: the “YAP1 (% UT)” value is reported as 85 % UT.
Same read-out and setting: the figure for “1198316 (kG*kG*kA*dA*dG*dA*dT*d[5mC]*dT*dG*dA*dA*kA*e[5mC]*kT*e[5mC]; antisense) [Compound 1198316]” is 49 % UT.

Staying with this data set, now noted: Table 49; Yap1 mRNA level relative to untreated control; modified oligonucleotides targeting SEQ ID NO.: 1 and 2.
Consider “1198302 (kT*kA*kT*dA*dA*d[5mC]*dT*dG*dG*dG*d[5mC]*dA*kA*eA*kT*eT; antisense) [Compound 1198302]”, for which the “YAP1 (% UT)” value worked out at 67 % UT.
Turning to “1198303 (kG*kG*kT*dA*dT*dA*dA*d[5mC]*dT*dG*dG*dG*k[5mC]*eA*kA*eA; antisense) [Compound 1198303]”, the “YAP1 (% UT)” value was determined as 27 % UT.
On the same count and under the same terms, to “1198304 (kA*kG*kG*dT*dA*dT*dA*dA*d[5mC]*dT*dG*dG*kG*e[5mC]*kA*eA; antisense) [Compound 1198304]” belongs 33 % UT.
Take “1198305 (kG*kA*kG*dG*dT*dA*dT*dA*dA*d[5mC]*dT*dG*kG*eG*k[5mC]*eA; antisense) [Compound 1198305]”: the “YAP1 (% UT)” value worked out at 78 % UT.
Still for that read-out and setting: to “1198306 (kA*kA*k[5mC]*dA*d[5mC]*dT*dG*dA*dG*dG*dT*dA*kT*eA*kA*e[5mC]; antisense) [Compound 1198306]” belongs 64 % UT.
